The record followed here is ChEMBL document CHEMBL3739283, “Synthesis and biological evaluation of potential small moleculeinhibitors of tumor necrosis factor” (Medchemcomm, 2015).

Some results are limits rather than exact numbers.

The target in test [1] is T1, Tumor necrosis factor (Homo sapiens, UniProt P01375). The experiment in a line: Binding affinity to human GST-tagged TNF extracellular domain expressed in Escherichia coli BL21(DE3)pLysS cells by fluorescence spectrophotometric analysis.
The target of test [2] is T1, Tumor necrosis factor. The experiment in a line: Binding affinity to recombinant human TNF assessed as inhibition of TNF-TNFR1 interaction incubated for 1 hr by ELISA.
Test [3] has as its target T1, Tumor necrosis factor. The experiment in a line: Inhibition of human TNF assessed as reduction in TNF-induced cell death of actinomycin D activated mouse L929 cells preincubated for 30 mins followed by cell addition measured after 18 to 24 hrs by crystal violet staining based spectrophotometric analysis.

T1 sequence (P01375 whole entry, the tested form may be a part): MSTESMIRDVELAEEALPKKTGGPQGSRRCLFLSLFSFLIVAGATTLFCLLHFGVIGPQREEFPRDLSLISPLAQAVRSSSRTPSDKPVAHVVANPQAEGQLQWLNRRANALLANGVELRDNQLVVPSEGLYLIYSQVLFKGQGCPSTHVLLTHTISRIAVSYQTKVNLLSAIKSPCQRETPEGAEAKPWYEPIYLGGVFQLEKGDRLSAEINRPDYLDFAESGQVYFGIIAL

By Kd is commonly meant the constant that tells how readily two partners part at equilibrium. By IC50 is commonly meant the concentration at which inhibition is half-maximal. Turning to `CN(CCN(C)C(=O)c1cn(S(=O)(=O)c2cccc(N)c2)c2ccccc12)C(=O)c1coc2ccccc2c1=O`, in test [1] (read-out: Kd), the Kd turned out to be 0.95 µM. For the same compound, the IC50 in test [2] was 20 µM.

With `Cc1cc2occ(C(=O)N3CCN(C(=O)c4cn(-c5cccc(C(F)(F)F)c5)c5ccccc45)CC3)c(=O)c2cc1C`, in test [1] (read-out: Kd), the Kd is 5.12 µM. The 50% inhibitory concentration (IC50) entry in test [3] was “Not Active”.

For `CN(CCN(C)C(=O)c1cn(S(=O)(=O)c2ccccc2)c2ccccc12)C(=O)c1cccs1`, the equilibrium dissociation constant (Kd) in test [1] (read-out: Kd) is 8.22 µM. The IC50 result in test [3] was “Not Active”.

In the case of `O=C(c1coc2ccccc2c1=O)N1CCN(Cc2cn(-c3cccc(C(F)(F)F)c3)c3ccc([N+](=O)[O-])cc23)CC1`, the Kd result in test [1] is listed as “Not Active”. Besides, in test [3], the IC50 result is listed as “Not Active”.

For the compound `O=C(c1ccccc1F)N1CCN(C(=O)c2c[nH]c3ccc([N+](=O)[O-])cc23)CC1`, the Kd in test [1] (read-out: Kd) came out at 17.9 µM. Moreover, the IC50 result in test [3] was “Not Active”.

Turning to `CN(CCN(C)C(=O)n1ccnc1)C(=O)c1cn(S(=O)(=O)c2ccccc2)c2ccccc12`, in test [1], the Kd entry is given as “Not Active”. The half-inhibitory concentration (IC50) result in test [3] was “Not Active”.

In the case of `O=C(NCCCNC(=O)c1cn(S(=O)(=O)c2ccccc2)c2ccccc12)c1ccccc1`, the Kd entry in test [1] was “Not Active”. Besides, in test [3], the IC50 entry is “Not Active”.

`CN(CCN(C)C(=O)c1cn(S(=O)(=O)c2ccccc2)c2ccccc12)C(=O)c1ccccc1F`: the equilibrium dissociation constant (Kd) result in test [1] was “Not Active”. Further, the IC50 entry in test [3] is listed as “Not Active”.

With `O=C(c1ccc2ccccc2c1)N1CCN(Cc2cn(-c3cccc(C(F)(F)F)c3)c3ccccc23)CC1`, the Kd in test [1] (read-out: Kd) stood at 7.82 µM. In addition, in test [2], the IC50 was found to be 40 µM.

As for `O=C(c1ccccc1)N1CCN(C(=O)c2cn(-c3cccc(C(F)(F)F)c3)c3ccccc23)CC1`, the Kd in test [1] (read-out: Kd) was 15.2 µM. The IC50 entry in test [3] was “Not Active”.

Consider `Nc1cccc(-n2cc(C(=O)N3CCN(C(=O)c4coc5ccccc5c4=O)CC3)c3cc(N)ccc32)c1`, for which, in test [1] (read-out: Kd), the Kd is 15.6 µM. Further, in test [2], the IC50 came out at 40 µM.

As for `O=C(NCCCCNC(=O)c1cn(S(=O)(=O)c2ccccc2)c2ccccc12)c1ccc2ccccc2c1`, the Kd in test [1] (read-out: Kd) came to 18.7 µM. Moreover, in test [3], the IC50 entry is on record as “Not Active”.

With `CN(CCN(C)C(=O)c1cn(S(=O)(=O)c2ccccc2)c2ccccc12)C(=O)c1ccccc1`, in test [1] (read-out: Kd), the Kd came to 17.3 µM. The IC50 entry in test [3] was “Not Active”.

As to `CN(CCN(C)C(=O)c1cn(-c2cccc(C(F)(F)F)c2)c2ccc([N+](=O)[O-])cc12)C(=O)c1coc2ccccc2c1=O`, the Kd in test [1] (read-out: Kd) was 13.3 µM. In test [3], the IC50 result is listed as “Not Active”.

On to `Cc1ccc2occ(CN(C)CCN(C)Cc3cn(-c4cccc(C(F)(F)F)c4)c4ccccc34)c(=O)c2c1`, for which, in test [1] (read-out: Kd), the Kd is 18.6 µM. The IC50 in test [2] stood at 10 µM.

For `CN(CCN(C)C(=O)c1cn(S(=O)(=O)c2ccccc2)c2ccccc12)C(=O)c1ccc2ccccc2c1`, the Kd in test [1] (read-out: Kd) came out at 25 µM. Further, the IC50 result in test [3] was “Not Active”.

For the compound `O=C(c1coc2ccccc2c1=O)N1CCN(C(=O)c2cn(S(=O)(=O)c3cccc([N+](=O)[O-])c3)c3ccccc23)CC1`, the Kd in test [1] (read-out: Kd) stood at 16.8 µM. Also, the IC50 in test [2] was 40 µM.

In the case of `O=C(c1ccc2ccccc2c1)N1CCN(C(=O)c2cn(-c3cccc(C(F)(F)F)c3)c3ccccc23)CC1`, in test [1], the equilibrium dissociation constant (Kd) result is reported as “Not Active”. The IC50 result in test [3] was “Not Active”.

As to `Cc1cc2occ(CN3CCN(Cc4cn(-c5cccc(C(F)(F)F)c5)c5ccccc45)CC3)c(=O)c2cc1C`, the equilibrium dissociation constant (Kd) in test [1] (read-out: Kd) turned out to be 10.1 µM. For the same compound, in test [2], the IC50 was determined as 15 µM.

With `O=C(c1coc2ccccc2c1=O)N1CCN(C(=O)c2cn(-c3cccc([N+](=O)[O-])c3)c3ccc([N+](=O)[O-])cc23)CC1`, the Kd in test [1] (read-out: Kd) was determined as 0.74 µM. In test [2], the 50% inhibitory concentration (IC50) was 20 µM.

On to `O=C(c1ccc2ccccc2c1)N1CCN(C(=O)c2cn(S(=O)(=O)c3ccccc3)c3ccccc23)CC1`, for which, in test [1], the equilibrium dissociation constant (Kd) result is on record as “Not Active”. Further, the half-inhibitory concentration (IC50) result in test [3] is listed as “Not Active”.

`O=C(c1ccccc1)N1CCN(Cc2cn(-c3cccc(C(F)(F)F)c3)c3ccccc23)CC1`: in test [1] (read-out: Kd), the Kd was 2.14 µM. The 50% inhibitory concentration (IC50) in test [2] was found to be 20 µM.

On to `O=C(c1ccc2ccccc2c1)N1CCN(Cc2cn(-c3cccc(C(F)(F)F)c3)c3ccc([N+](=O)[O-])cc23)CC1`, for which the Kd entry in test [1] is given as “Not Active”. Also, the half-maximal inhibitory concentration (IC50) result in test [3] is reported as “Not Active”.

Take `CN(CCN(C)C(=O)c1cn(S(=O)(=O)c2cccc([N+](=O)[O-])c2)c2ccccc12)C(=O)c1coc2ccccc2c1=O`: the Kd in test [1] (read-out: Kd) was 3.16 µM. Besides, the IC50 in test [2] turned out to be 40 µM.

Turning to `Nc1cccc(S(=O)(=O)n2cc(C(=O)N3CCN(C(=O)c4coc5ccccc5c4=O)CC3)c3ccccc32)c1`, the Kd in test [1] (read-out: Kd) was 5.45 µM. Moreover, the IC50 in test [2] came out at 40 µM.

On to `O=C(c1coc2ccccc2c1=O)N1CCN(C(=O)c2cn(-c3cccc(C(F)(F)F)c3)c3ccc([N+](=O)[O-])cc23)CC1`, for which, in test [1], the equilibrium dissociation constant (Kd) result is reported as “Not Active”. For the same compound, the IC50 entry in test [3] was “Not Active”.

Take `O=C(c1coc2ccccc2c1=O)N1CCN(Cc2cn(-c3cccc(C(F)(F)F)c3)c3ccccc23)CC1`: in test [1] (read-out: Kd), the Kd amounted to 1.61 µM. Moreover, the IC50 in test [2] amounted to 20 µM.

For `Nc1cccc(-n2cc(C(=O)N3CCN(C(=O)C4COc5ccccc5C4=O)CC3)c3cc(N)ccc32)c1` (configuration not stated), the dissociation constant (Kd) result in test [1] was “Not Active”. The IC50 result in test [3] was “Not Active”.

As for `Nc1cccc(-n2cc(C(=O)N3CCN(C(=O)c4coc5ccccc5c4=O)CC3)c3ccccc32)c1`, the Kd in test [1] (read-out: Kd) was 14.1 µM. In addition, the IC50 in test [2] is 20 µM.

In the case of `CN(CCN(C)C(=O)c1cn(S(=O)(=O)c2ccccc2)c2ccccc12)C(=O)c1coc2ccccc2c1=O`, the Kd in test [1] (read-out: Kd) turned out to be 7 µM. Further, the IC50 in test [2] is more than 60 µM.

`O=C(c1coc2ccccc2c1=O)N1CCN(C(=O)c2cn(-c3cccc([N+](=O)[O-])c3)c3ccccc23)CC1`: in test [1] (read-out: Kd), the Kd was found to be 25.4 µM. In addition, the half-maximal inhibitory concentration (IC50) entry in test [3] is “Not Active”.

As for `O=C(c1coc2ccccc2c1=O)N1CCN(C(=O)c2cn(S(=O)(=O)c3ccccc3)c3ccccc23)CC1`, the Kd in test [1] (read-out: Kd) is 12.8 µM. For the same compound, the IC50 in test [2] amounted to 40 µM.

Consider `CN(CCN(C)C(=O)c1cn(-c2cccc(N)c2)c2ccccc12)C(=O)c1coc2ccccc2c1=O`, for which the Kd in test [1] (read-out: Kd) is 35.2 µM. In addition, the IC50 result in test [3] is “Not Active”.

As for `Cc1cc2occ(C(=O)N(C)CCN(C)C(=O)c3cn(-c4cccc(C(F)(F)F)c4)c4ccccc34)c(=O)c2cc1C`, in test [1] (read-out: Kd), the Kd was 2.51 µM. Also, in test [2], the IC50 was more than 60 µM.

`CN(CCN(C)C(=O)c1cn(-c2cccc([N+](=O)[O-])c2)c2ccccc12)C(=O)c1coc2ccccc2c1=O`: the Kd in test [1] (read-out: Kd) stood at 12.2 µM. Moreover, in test [3], the half-maximal inhibitory concentration (IC50) result is on record as “Not Active”.

Regarding `Cc1ccc2occ(CN3CCN(Cc4cn(-c5cccc(C(F)(F)F)c5)c5ccccc45)CC3)c(=O)c2c1`, the Kd in test [1] (read-out: Kd) worked out at 4.78 µM. Moreover, the IC50 in test [2] amounted to 15 µM.

In the case of `O=C(NCCNC(=O)c1cn(S(=O)(=O)c2ccccc2)c2ccccc12)c1ccc2ccccc2c1`, in test [1] (read-out: Kd), the Kd is more than 35 µM. In addition, the IC50 entry in test [3] is given as “Not Active”.

For `O=C(NCCCNC(=O)c1cn(S(=O)(=O)c2ccccc2)c2ccccc12)c1coc2ccccc2c1=O`, the Kd in test [1] (read-out: Kd) was 5.2 µM. Also, in test [2], the IC50 was 40 µM.

Turning to `O=C(c1cccs1)N1CCN(C(=O)c2c[nH]c3ccc([N+](=O)[O-])cc23)CC1`, in test [1] (read-out: Kd), the Kd came out at 10.7 µM. The IC50 result in test [3] is listed as “Not Active”.

As for `O=C(c1cn(-c2cccc(C(F)(F)F)c2)c2ccccc12)N1CCN(C(=O)n2ccnc2)CC1`, the Kd in test [1] (read-out: Kd) is more than 35 µM. The IC50 result in test [3] was “Not Active”.

In the case of `CN(CCN(C)C(=O)c1cn(-c2cccc(C(F)(F)F)c2)c2ccc([N+](=O)[O-])cc12)C(=O)c1ccccc1F`, the Kd in test [1] (read-out: Kd) came to 10.3 µM. Also, the half-maximal inhibitory concentration (IC50) result in test [3] is listed as “Not Active”.
